Experimental data as given in patent publication US8722849B2, “Polypeptides” (Novo Nordisk A/S, priority 2011, dated 2014).
Values after ≈ are worked out from the molar mass of the structure shown. Like-named read-outs stand apart in the source and are kept apart here. Starred links: 1 amine or outer side, 2 acyl side, 3 side chain; linkers in the order of their positions; H or OH if unused. Positions of bridges follow the written chain, without caps; N, C: chain ends. Residues, ends and D or L forms follow the SMILES beside them. *: point of attachment. C20 diacid = O=C(O)CCCCCCCCCCCCCCCCCCC(=O)*; γGlu = O=C(O)[C@H](CCC(=O)[*:2])N[*:1]

What was measured:
[1] = Assay (III) ThT fibrillation assay for physical stability; assay type: physicochemical; conditions: ThT fibrillation assay
How it was run: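 Freshly prepared formulations, pH-adjusted, with 1 μM ThT; four or eight replicates incubated at 37 °C under 960 rpm orbital shaking. Fluorescence (ex 444/em 485 nm) read every 20 min; […]. Peptide concentration measured by RP-HPLC before and after the run.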

[2] = Assay (IV) determination of solubility; assay type: physicochemical
How it was run: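 Eight 100 mM buffers (glycylglycine pH 3.0–5.0, bistrispropane pH 6.0–8.0) each received an equal volume of polypeptide dissolved in water at ~500 nmol/ml. Soluble polypeptide was measured by HPLC following 18 hours at room temperature and centrifugation.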

[3] = bistrispropane buffer, pH 6, pH 6.0, read-out: Solubility pH 6.0
[4] = bistrispropane buffer, pH 6.5, pH 6.5, read-out: Solubility pH 6.5
[5] = bistrispropane buffer, pH 7.5, pH 7.5, read-out: Solubility pH 7.5
[6] = bistrispropane buffer, pH 8, pH 8.0, read-out: Solubility pH 8.0
[7] = glycylglycine buffer, pH 3, pH 3.0, read-out: Solubility pH 3.0
[8] = glycylglycine buffer, pH 4, pH 4.0, 18 hours at room temperature, Table 2, read-out: Solubility pH 4.0
[9] = glycylglycine buffer, pH 4, pH 4.0, read-out: Solubility pH 4.0
[10] = glycylglycine buffer, pH 5, pH 5.0, read-out: Solubility pH 5.0

## CC[C@H](C)[C@H](NC(=O)[C@@H]1CCCN1C(=O)CNC(=O)[C@H](Cc1ccccc1)NC(=O)[C@H](CC(N)=O)NC(=O)[C@H](CC(N)=O)NC(=O)[C@H](CO)NC(=O)[C@H](CO)NC(=O)[C@H](Cc1c[nH]cn1)NC(=O)[C@H](Cc1c[nH]cn1)NC(=O)[C@H](CC(C)C)NC(=O)[C@H](Cc1ccccc1)NC(=O)[C@H](CCC(=O)O)NC(=O)[C@H](C)NC(=O)[C@H](CC(C)C)NC(=O)[C@H](CCCNC(=N)N)NC(=O)[C@H](CCC(N)=O)NC(=O)[C@@H](NC(=O)[C@H](C)NC(=O)[C@@H]1CSSC[C@H](NC(=O)[C@H](CCCCN)NC(=O)CC[C@H](NC(=O)CCCCCCCCCCCCCCCCCCC(=O)O)C(=O)O)C(=O)N[C@@H](CC(N)=O)C(=O)N[C@@H]([C@@H](C)O)C(=O)N[C@@H](C)C(=O)N[C@@H]([C@@H](C)O)C(=O)N1)[C@@H](C)O)C(=O)N[C@@H](CC(C)C)C(=O)N1CCC[C@H]1C(=O)N1CCC[C@H]1C(=O)N[C@H](C(=O)N[C@@H](CC(N)=O)C(=O)N[C@H](C(=O)NCC(=O)N[C@@H](CO)C(=O)N[C@@H](CC(N)=O)C(=O)N[C@H](C(=O)N[C@@H](Cc1ccc(O)cc1)C(N)=O)[C@@H](C)O)C(C)C)[C@@H](C)O [Example 27, N-alpha-[(S)-4-Carboxy-4-(19-carboxynonadecanoylamino)butyryl]-[Glu14,His17]-pramlintide] ({C20 diacid-γGlu}-KCNTATCATQRLAEFLHHSSNNFGPILPPTNVGSNTY-NH2; disulfide 2-7 (inferred))
[1]
  ThT pH 4.0 lag time (h): 12.3 h
[2]; [3]
  solubility at 18 h: > 200 µM
[2]; [4]
  solubility at 18 h: 174 µM (≈ 775 µg/mL)
[2]; bistrispropane buffer, pH 7, pH 7.0, 18 hours at room temperature, Table 3, read-out: Solubility pH 7.0
  solubility at 18 h: 160 µM (≈ 713 µg/mL)
[2]; bistrispropane buffer, pH 7, pH 7.0, read-out: Solubility pH 7.0
  solubility at 18 h: 160 µM (≈ 713 µg/mL)
[2]; [5]
  solubility at 18 h: > 200 µM
[2]; [6]
  solubility at 18 h: > 200 µM
[2]; [7]
  solubility at 18 h: > 200 µM
[2]; [8]
  solubility at 18 h: > 200 µM
[2]; [9]
  solubility at 18 h: > 200 µM
[2]; [10]
  solubility at 18 h: > 200 µM

## CC[C@H](C)[C@H](NC(=O)[C@@H]1CCCN1C(=O)CNC(=O)[C@H](Cc1ccccc1)NC(=O)[C@H](CC(N)=O)NC(=O)[C@H](CC(N)=O)NC(=O)[C@H](CO)NC(=O)[C@H](CO)NC(=O)[C@H](Cc1c[nH]cn1)NC(=O)[C@H](Cc1c[nH]cn1)NC(=O)[C@H](CC(C)C)NC(=O)[C@H](Cc1ccccc1)NC(=O)[C@H](CCC(=O)O)NC(=O)[C@H](C)NC(=O)[C@H](CC(C)C)NC(=O)[C@H](CCCNC(=N)N)NC(=O)[C@H](CCC(N)=O)NC(=O)[C@@H](NC(=O)[C@H](C)NC(=O)[C@@H]1CSSC[C@H](NC(=O)[C@H](Cc2c[nH]cn2)NC(=O)[C@H](Cc2c[nH]cn2)NC(=O)[C@H](Cc2c[nH]cn2)NC(=O)CC[C@H](NC(=O)CCCCCCCCCCCCCCCCCCC(=O)O)C(=O)O)C(=O)N[C@@H](CC(N)=O)C(=O)N[C@@H]([C@@H](C)O)C(=O)N[C@@H](C)C(=O)N[C@@H]([C@@H](C)O)C(=O)N1)[C@@H](C)O)C(=O)N[C@@H](CC(C)C)C(=O)N1CCC[C@H]1C(=O)N1CCC[C@H]1C(=O)N[C@H](C(=O)N[C@@H](CC(N)=O)C(=O)N[C@H](C(=O)NCC(=O)N[C@@H](CO)C(=O)N[C@@H](Cc1c[nH]cn1)C(=O)N[C@H](C(=O)N[C@@H](Cc1ccc(O)cc1)C(N)=O)[C@@H](C)O)C(C)C)[C@@H](C)O [Example 31, N-alpha-[(S)-4-Carboxy-4-(19-carboxynonadecanoylamino)butyryl]-His-His-[His1,Glu14,His17,His35]-pramlintide] ({C20 diacid-γGlu}-HHHCNTATCATQRLAEFLHHSSNNFGPILPPTNVGSHTY-NH2; disulfide 4-9 (inferred); C-terminus assumed)
[1]
  ThT pH 4.0 lag time: >45 h
  ThT pH 4.0 lag time (h): >45 h
[2]; [3]
  solubility at 18 h: > 200 µM
[2]; [4]
  solubility at 18 h: 8 µM (≈ 38.1 µg/mL)
[2]; [5]
  solubility at 18 h: 10 µM (≈ 47.6 µg/mL)
[2]; [6]
  solubility at 18 h: 65 µM (≈ 310 µg/mL)
[2]; [7]
  solubility at 18 h: > 200 µM
[2]; [8]
  solubility at 18 h: > 200 µM
[2]; [9]
  solubility at 18 h: > 200 µM
[2]; [10]
  solubility at 18 h: > 200 µM

## CC[C@H](C)[C@H](NC(=O)[C@@H]1CCCN1C(=O)CNC(=O)[C@H](Cc1ccccc1)NC(=O)[C@H](CC(N)=O)NC(=O)[C@H](CC(N)=O)NC(=O)[C@H](CO)NC(=O)[C@H](CO)NC(=O)[C@H](Cc1c[nH]cn1)NC(=O)[C@H](Cc1c[nH]cn1)NC(=O)[C@H](CC(C)C)NC(=O)[C@H](Cc1ccccc1)NC(=O)[C@H](CCC(=O)O)NC(=O)[C@H](C)NC(=O)[C@H](CC(C)C)NC(=O)[C@H](CCCNC(=N)N)NC(=O)[C@H](CCC(N)=O)NC(=O)[C@@H](NC(=O)[C@H](C)NC(=O)[C@@H]1CSSC[C@H](NC(=O)[C@H](Cc2c[nH]cn2)NC(=O)[C@H](Cc2c[nH]cn2)NC(=O)[C@H](Cc2c[nH]cn2)NC(=O)CC[C@H](NC(=O)CCCCCCCCCCCCCCCCCCC(=O)O)C(=O)O)C(=O)N[C@@H](Cc2c[nH]cn2)C(=O)N[C@@H]([C@@H](C)O)C(=O)N[C@@H](C)C(=O)N[C@@H]([C@@H](C)O)C(=O)N1)[C@@H](C)O)C(=O)N[C@@H](CC(C)C)C(=O)N1CCC[C@H]1C(=O)N1CCC[C@H]1C(=O)N[C@H](C(=O)N[C@@H](CC(N)=O)C(=O)N[C@H](C(=O)NCC(=O)N[C@@H](CO)C(=O)N[C@@H](Cc1c[nH]cn1)C(=O)N[C@H](C(=O)N[C@@H](Cc1ccc(O)cc1)C(N)=O)[C@@H](C)O)C(C)C)[C@@H](C)O [Example 32, N-alpha-[(S)-4-Carboxy-4-(19-carboxynonadecanoylamino)butyryl]-His-His-[His1,His3,Glu14,His17,His35]-pramlintide] ({C20 diacid-γGlu}-HHHCHTATCATQRLAEFLHHSSNNFGPILPPTNVGSHTY-NH2; disulfide 4-9 (inferred))
[1]
  ThT pH 4.0 lag time: >45 h
  ThT pH 4.0 lag time (h): >45 h
[2]; [3]
  solubility at 18 h: > 200 µM
[2]; [4]
  solubility at 18 h: 6 µM (≈ 28.7 µg/mL)
[2]; [5]
  solubility at 18 h: 6 µM (≈ 28.7 µg/mL)
[2]; [6]
  solubility at 18 h: 55 µM (≈ 263 µg/mL)
[2]; [7]
  solubility at 18 h: > 200 µM
[2]; [8]
  solubility at 18 h: > 200 µM
[2]; [9]
  solubility at 18 h: > 200 µM
[2]; [10]
  solubility at 18 h: > 200 µM
